Measurements: US20230151025A1, “SUBSTITUTED THIAZOLOPYRIDINES, SALTS THEREOF AND THEIR USE AS HERBICIDALLY ACTIVE SUBSTANCES” (Bayer Aktiengesellschaft, priority 2020, published 2023)

Tests used:
Format in all cases: in vivo
[1] = test system: Amaranthus retroflexus (AMARE); assay: Herbicidal post-emergence action (D), 320 g/ha; conditions: ca. 3 weeks
Procedure, shortened: (§1)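 Post-emergence greenhouse spray of WP or EC formulations plus 0.5% additive at 600 l water/ha onto single-leaf-stage plants, 2–3 weeks after sowing in sandy loam. About 3 weeks later, effect was rated visually against untreated controls as % herbicidal effect, where 0% means like control and 100% means plants dead.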

[2] = test system: Alopecurus myosuroides (ALOMY); assay: Herbicidal post-emergence action (D), 320 g/ha; conditions: ca. 3 weeks
Procedure, shortened: as §1

Veronica persica (VERPE) [3] = assay: Herbicidal post-emergence action (D), 320 g/ha; conditions: ca. 3 weeks
Procedure, shortened: as §1

[4] = test system: Echinochloa crus-galli (ECHCG); assay: Herbicidal post-emergence action (D), 320 g/ha; conditions: ca. 3 weeks
Procedure, shortened: as §1

[5] = test system: Polygonum convolvulus (POLCO); assay: Herbicidal post-emergence action (D), 320 g/ha; conditions: ca. 3 weeks
Procedure, shortened: as §1

[6] = test system: Amaranthus retroflexus (AMARE); assay: Herbicidal pre-emergence action (A), 1280 g/ha; conditions: visual grading after ca. 3 weeks vs untreated controls
Procedure, shortened: (§2)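 Pre-emergence greenhouse test: seeds sown in sandy loam pots, WP or EC formulations sprayed onto covering soil as aqueous suspension/emulsion with 0.5% additive at 600 l water/ha. Damage graded visually after ca. 3 weeks versus untreated controls, 0% = as control, 100% = plants dead.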

[7] = test system: Kochia scoparia (KCHSC; Bassia scoparia); assay: Herbicidal pre-emergence action (A), 1280 g/ha; conditions: visual grading after ca. 3 weeks vs untreated controls
Procedure, shortened: as §2

Lolium rigidum (LOLRI) [8] = assay: Herbicidal pre-emergence action (A), 1280 g/ha; conditions: visual grading after ca. 3 weeks vs untreated controls, 100% = plants have died off, 0% = as control plants
Procedure, shortened: as §2

[9] = test system: Alopecurus myosuroides (ALOMY); assay: Herbicidal pre-emergence action (A), 1280 g/ha; conditions: visual grading after ca. 3 weeks vs untreated controls, 100% = plants have died off, 0% = as control plants
Procedure, shortened: as §2

[10] = test system: Matricaria inodora (MATIN); assay: Herbicidal pre-emergence action (A), 1280 g/ha; conditions: visual grading after ca. 3 weeks vs untreated controls
Procedure, shortened: as §2

Poa annua (POAAN) = assay: Herbicidal pre-emergence action (A), 1280 g/ha; conditions: visual grading after ca. 3 weeks vs untreated controls, 100% = plants have died off, 0% = as control plants
Procedure, shortened: as §2

Veronica persica (VERPE) [11] = assay: Herbicidal pre-emergence action (A), 1280 g/ha; conditions: visual grading after ca. 3 weeks vs untreated controls
Procedure, shortened: as §2

Stellaria media (STEME) = assay: Herbicidal pre-emergence action (A), 1280 g/ha; conditions: visual grading after ca. 3 weeks vs untreated controls
Procedure, shortened: as §2

Setaria viridis (SETVI) [12] = assay: Herbicidal pre-emergence action (A), 1280 g/ha; conditions: visual grading after ca. 3 weeks vs untreated controls
Procedure, shortened: as §2

[13] = test system: Echinochloa crus-galli (ECHCG); assay: Herbicidal pre-emergence action (A), 1280 g/ha; conditions: visual grading after ca. 3 weeks vs untreated controls, 100% = plants have died off, 0% = as control plants
Procedure, shortened: as §2

[14] = test system: Digitaria sanguinalis (DIGSA); assay: Herbicidal pre-emergence action (A), 1280 g/ha; conditions: visual grading after ca. 3 weeks vs untreated controls, 100% = plants have died off, 0% = as control plants
Procedure, shortened: as §2

[15] = test system: Abutilon theophrasti (ABUTH); assay: Herbicidal pre-emergence action (A), 1280 g/ha; conditions: visual grading after ca. 3 weeks vs untreated controls, 100% = plants have died off, 0% = as control plants
Procedure, shortened: as §2

[16] = test system: Digitaria sanguinalis (DIGSA); assay: Herbicidal pre-emergence action (C), 320 g/ha; conditions: ca. 3 weeks
Procedure, shortened: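 Weed and crop seeds sown in sandy loam; WP or EC formulations applied pre-emergence to the soil surface as aqueous suspension/emulsion with 0.5% additive at 600 l water/ha. Greenhouse-grown under optimum conditions; damage visually scored after ca. 3 weeks versus untreated controls (0% = as control, 100% = plants dead).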

[17] = test system: Amaranthus retroflexus (AMARE); assay: Herbicidal pre-emergence action (C), 320 g/ha; conditions: ca. 3 weeks
Procedure, shortened: (§3)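 Visual percent damage relative to untreated controls was scored about 3 weeks after treatment, where 100% means plants died off and 0% means like controls. Compounds, as WP or EC with 0.5% additive, were applied in 600 l water/ha to the soil covering sown seeds.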

Lolium rigidum (LOLRI) [18] = assay: Herbicidal pre-emergence action (C), 320 g/ha; conditions: ca. 3 weeks
Procedure, shortened: as §3

[19] = test system: Alopecurus myosuroides (ALOMY); assay: Herbicidal pre-emergence action (C), 320 g/ha; conditions: ca. 3 weeks
Procedure, shortened: as §3

Veronica persica (VERPE) [20] = assay: Herbicidal pre-emergence action (C), 320 g/ha; conditions: ca. 3 weeks
Procedure, shortened: as §3

Setaria viridis (SETVI) [21] = assay: Herbicidal pre-emergence action (C), 320 g/ha; conditions: ca. 3 weeks
Procedure, shortened: as §3

[22] = test system: Echinochloa crus-galli (ECHCG); assay: Herbicidal pre-emergence action (C), 320 g/ha; conditions: ca. 3 weeks
Procedure, shortened: as §3

SMILES	herbicidal effect ALOMY [2] [%]	herbicidal effect VERPE (Veronica persica (VERPE) [3]) [%]	herbicidal effect ECHCG [4] [%]	herbicidal effect AMARE [6] [%]	herbicidal effect KCHSC [7] [%]	LOLRI, herbicidal effect in percent (%) (Lolium rigidum (LOLRI) [8])	ALOMY, herbicidal effect in percent (%) [9] [%]	herbicidal effect MATIN [10] [%]	POAAN, herbicidal effect in percent (%) (Poa annua (POAAN))	herbicidal effect VERPE (Veronica persica (VERPE) [11]) [%]	herbicidal effect STEME (Stellaria media (STEME)) [%]	herbicidal effect SETVI (Setaria viridis (SETVI) [12]) [%]	ECHCG, herbicidal effect in percent (%) [13] [%]	herbicidal effect DIGSA [16] [%]	herbicidal effect AMARE [17] [%]	herbicidal effect LOLRI (Lolium rigidum (LOLRI) [18]) [%]	herbicidal effect ALOMY [19] [%]	herbicidal effect VERPE (Veronica persica (VERPE) [20]) [%]	herbicidal effect SETVI (Setaria viridis (SETVI) [21]) [%]	herbicidal effect ECHCG [22] [%]	also measured
Fc1ccccc1-c1nc2ncsc2cc1Cl [Example I-017]	90	90	80	100	100	100	100	100	100	90	100	100	100	100	90	100	100	90	100	100	herbicidal effect AMARE [1]: 100%; herbicidal effect POLCO [5]: 90%; DIGSA, herbicidal effect in percent (%) [14]: 100%; ABUTH, herbicidal effect in percent (%) [15]: 90%
CCc1cc2scnc2nc1-c1cccc(F)c1 [Example I-029]	90	90	90	100	100	100	100	90	100	90	100	100	100	100	90	100	100	90	100	100	herbicidal effect POLCO [5]: 90%; DIGSA, herbicidal effect in percent (%) [14]: 100%; ABUTH, herbicidal effect in percent (%) [15]: 90%
Fc1ccccc1-c1ccc2scnc2n1 [Example I-036, 5-(2-fluorophenyl)thiazolo[4,5-b]pyridine]	–	–	80	90	–	100	–	90	100	–	90	100	100	100	100	100	100	90	100	100	herbicidal effect POLCO [5]: 80%
CCc1cc2scnc2nc1-c1ccccc1 [Example I-051]	90	90	90	–	90	100	100	90	100	90	90	100	100	100	90	100	100	90	100	100	herbicidal effect AMARE [1]: 90%; herbicidal effect POLCO [5]: 90%; DIGSA, herbicidal effect in percent (%) [14]: 100%; ABUTH, herbicidal effect in percent (%) [15]: 90%
CCc1cc2scnc2nc1-c1ccccc1C [Example I-093]	90	90	–	90	100	100	100	100	100	100	100	100	90	100	90	100	100	90	100	100	herbicidal effect AMARE [1]: 90%; DIGSA, herbicidal effect in percent (%) [14]: 100%; ABUTH, herbicidal effect in percent (%) [15]: 90%
COc1ccccc1-c1nc2ncsc2cc1C [Example I-124]	90	90	80	100	100	100	100	100	100	100	100	100	100	100	90	100	100	90	100	100	DIGSA, herbicidal effect in percent (%) [14]: 100%; ABUTH, herbicidal effect in percent (%) [15]: 100%
